The results in this text go back to patent US7238701B2, “Substituted tetrahydrobenzothienopyrimidinamine compounds useful for treating hyper-proliferative disorders” (Bayer Pharmaceuticals Corporation, priority 2003, dated 2007).

The subject of test [1] is A431cells (human epidermoid carcinoma). The experiment in a line: In vitro tumor cell proliferation assay (Cell Titer-Glo luminescent cell viability), A431 cells. It is filed as cell-based. The settings on record: A-431, 72 h, 72 hours drug exposure, 10% Fetal Bovine Serum, ATP luminescence readout, read-out: IC50 (50% inhibition of cell proliferation). In outline:
(§1)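 ATP luminescence (CellTiter-Glo) measured proliferation after 72 h compound exposure at 37 °C, giving IC50 values. Serial dilutions spanning 64 pM–100 μM in 0.1% DMSO were applied one day after plating 2.5×10^3 cells/well in RPMI plus 10% fetal bovine serum.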

Test [2] concerns BT474 (human breast carcinoma). In words: In vitro tumor cell proliferation assay (Cell Titer-Glo luminescent cell viability), BT474 cells. It is filed as cell-based. The settings on record: BT-474, 72 hours drug exposure, 10% Fetal Bovine Serum, ATP luminescence readout, read-out: IC50 (50% inhibition of cell proliferation). In outline:
as §1
In general terms: Cellular ATP, detected with luciferase, serves as a proxy for viable cell number.

Turning to `CCN(CC)CCC1CCc2c(sc3ncnc(Nc4ccc(OCc5ccccn5)c(Cl)c4)c23)C1` (centres unmarked) [Example 194, N-[3-chloro-4-(pyridin-2-ylmethoxy)phenyl]-7-[2-(diethylamino)ethyl]-5,6,7,8-tetrahydro[1]benzothieno[2,3-d]pyrimidin-4-amine], the IC50 in test [1] and in test [2] was less than 5 µM each time.

As for `OCCNCCC1CCc2c(sc3ncnc(Nc4ccc(OCc5cccc(F)c5)c(Cl)c4)c23)C1` (centres unmarked) [Example 163, 2-({2-[4-({3-chloro-4-[(3-fluorobenzyl)oxy]phenyl}amino)-5,6,7,8-tetrahydro[1]benzothieno[2,3-d]pyrimidin-7-yl]ethyl}amino)ethanol], the IC50 in test [1] and in test [2] was less than 5 µM each time.

As to `CS(=O)(=O)OCCC1CCc2c(sc3ncnc(Nc4ccc5c(cnn5Cc5ccccc5)c4)c23)C1` (centres unmarked) [Example 202, 2-{4-[(1-benzyl-1H-indazol-5-yl)amino]-5,6,7,8-tetrahydro[1]benzothieno[2,3-d]pyrimidin-7-yl}ethyl methanesulfonate], the IC50 in test [1] and in test [2] was less than 5 µM throughout.

In the case of `CN1CCN(C(=O)CC2CCc3c(sc4ncnc(Nc5cccc(Br)c5)c34)C2)CC1` (centres unmarked) [Example 68, N-(3-bromophenyl)-7-[2-(4-methyl-1-piperazinyl)-2-oxoethyl]-5,6,7,8-tetrahydro[1]benzothieno[2,3-d]pyrimidin-4-amine], the IC50 in test [1] and in test [2] was less than 50 µM in each case.

In the case of `N#Cc1ccc(N2CCN(CCC3CCc4c(sc5ncnc(Nc6ccc(OCc7cccc(F)c7)c(Cl)c6)c45)C3)CC2)cc1` (centres unmarked) [Example 172, 4-(4-{2-[4-({3-chloro-4-[(3-fluorobenzyl)oxy]phenyl}amino)-5,6,7,8-tetrahydro[1]benzothieno[2,3-d]pyrimidin-7-yl]ethyl}piperazin-1-yl)benzonitrile], the IC50 in test [1] is less than 50 µM; in test [2], less than 5 µM.

With `OCCC1CCc2c(sc3ncnc(Nc4cccc(Br)c4)c23)C1` (centres unmarked) [Example 102, 2-{4-[(3-bromophenyl)amino]-5,6,7,8-tetrahydro[1]benzothieno[2,3-d]pyrimidin-7-yl}ethanol], the IC50 in test [1] and in test [2] was less than 50 µM each time.

In the case of `COCCN1CCN(C(=O)CC2CCc3c(sc4ncnc(Nc5cccc(Br)c5)c34)C2)CC1` (centres unmarked) [Example 91, N-(3-bromophenyl)-7-{2-[4-(2-methoxyethyl)-1-piperazinyl]-2-oxoethyl}-5,6,7,8-tetrahydro[1]benzothieno[2,3-d]pyrimidin-4-amine], the IC50 in test [1] and in test [2] was less than 50 µM in each case.

For the compound `O=C(CC1CCc2c(sc3ncnc(Nc4ccc(F)c(Cl)c4)c23)C1)N1CCOCC1` (centres unmarked) [Example 61, N-(3-chloro-4-fluorophenyl)-7-[2-(4-morpholinyl)-2-oxoethyl]-5,6,7,8-tetrahydro[1]benzothieno[2,3-d]pyrimidin-4-amine], the figures for the IC50 in test [1] and in test [2] were less than 5 µM and less than 50 µM, respectively.

In the case of `COCCN(C)CCC1CCc2c(sc3ncnc(Nc4ccc(OCc5cccc(F)c5)c(Cl)c4)c23)C1` (centres unmarked) [Example 159, N-{3-chloro-4-[(3-fluorobenzyl)oxy]phenyl}-7-{2-[(2-methoxyethyl)(methyl)amino]ethyl}-5,6,7,8-tetrahydro[1]benzothieno[2,3-d]pyrimidin-4-amine], the IC50 in test [1] and in test [2] was less than 5 µM in each case.

`CS(=O)(=O)CCNC(=O)CC1CCc2c(sc3ncnc(Nc4cccc(Br)c4)c23)C1` (centres unmarked) [Example 77, 2-{4-[(3-bromophenyl)amino]-5,6,7,8-tetrahydro[1]benzothieno[2,3-d]pyrimidin-7-yl}-N-[2-(methylsulfonyl)ethyl]acetamide]: the IC50 in test [1] and in test [2] was less than 5 µM throughout.

Take `O[C@@H]1CCN(CCC2CCc3c(sc4ncnc(Nc5ccc(OCc6cccc(F)c6)c(Cl)c5)c34)C2)C1` (stereo partly drawn) [Example 197, (3R)-1-{2-[4-({3-chloro-4-[(3-fluorobenzyl)oxy]phenyl}amino)-5,6,7,8-tetrahydro[1]benzothieno[2,3-d]pyrimidin-7-yl]ethyl}pyrrolidin-3-ol]: the IC50 in test [1] and in test [2] was less than 5 µM each time.

In the case of `Brc1cccc(Nc2ncnc3sc4c(c23)CCC(CCNCCN2CCOCC2)C4)c1` (centres unmarked) [Example 78, N-(3-bromophenyl)-7-(2-{[2-(4-morpholinyl)ethyl]amino}ethyl)-5,6,7,8-tetrahydro[1]benzothieno[2,3-d]pyrimidin-4-amine], the IC50 in test [1] and in test [2] was less than 5 µM each time.

In the case of `CN1CCN(CC2CCc3c(sc4ncnc(Nc5ccc(Br)cc5F)c34)C2)CC1` (centres unmarked) [Example 22], the IC50 in test [1] and in test [2] was less than 5 µM throughout.

Consider `Fc1ccc(Nc2ncnc3sc4c(c23)CCC(CCN2CCN(Cc3ccncc3)CC2)C4)cc1Cl` (centres unmarked) [Example 99, N-(3-chloro-4-fluorophenyl)-7-{2-[4-(4-pyridinylmethyl)-1-piperazinyl]ethyl}-5,6,7,8-tetrahydro[1]benzothieno[2,3-d]pyrimidin-4-amine], for which the IC50 is less than 50 µM in test [1] and less than 5 µM in test [2].

For the compound `C=CC1(O)CCc2c(sc3ncnc(Nc4ccc(F)c(Cl)c4)c23)C1` (centres unmarked) [Example 201, 4-[(3-chloro-4-fluorophenyl)amino]-7-vinyl-5,6,7,8-tetrahydro[1]benzothieno[2,3-d]pyrimidin-7-ol], the IC50 in test [1] and in test [2] was less than 50 µM in each case.

With `OCCC1CCc2c(sc3ncnc(Nc4ccc(F)c(Cl)c4)c23)C1` (centres unmarked) [Example 64, 2-{4-[(3-chloro-4-fluorophenyl)amino]-5,6,7,8-tetrahydro[1]benzothieno[2,3-d]pyrimidin-7-yl}ethanol], the IC50 in test [1] and in test [2] was less than 50 µM throughout.

Turning to `CS(=O)(=O)CCNCCC1CCc2c(sc3ncnc(Nc4ccc(OCc5cccc(F)c5)c(Cl)c4)c23)C1` (centres unmarked) [Example 200, N-{3-chloro-4-[(3-fluorobenzyl)oxy]phenyl}-7-(2-{[2-(methylsulfonyl)ethyl]amino}ethyl)-5,6,7,8-tetrahydro[1]benzothieno[2,3-d]pyrimidin-4-amine], the IC50 in test [1] and in test [2] was less than 5 µM in each case.

Consider `CN1CCN(CCC2CCc3c(sc4ncnc(Nc5ccc6c(cnn6Cc6ccccc6)c5)c34)C2)CC1` (centres unmarked) [Example 227, N-(1-benzyl-1H-indazol-5-yl)-7-[2-(4-methylpiperazin-1-yl)ethyl]-5,6,7,8-tetrahydro[1]benzothieno[2,3-d]pyrimidin-4-amine], for which the figures for the IC50 in test [1] and in test [2] were less than 50 µM and less than 5 µM, respectively.

As for `O=C(O)CC1CCc2c(sc3ncnc(Nc4ccc(F)c(Cl)c4)c23)C1` (centres unmarked) [Example 72], the IC50 in test [1] was less than 5 µM; in test [2], less than 50 µM.

For the compound `CN(C)CCC1CCc2c(sc3ncnc(Nc4ccc(OCc5cccc(F)c5)c(Cl)c4)c23)C1` (centres unmarked) [Example 164, N-{3-chloro-4-[(3-fluorobenzyl)oxy]phenyl}-7-[2-(dimethylamino)ethyl]-5,6,7,8-tetrahydro[1]benzothieno[2,3-d]pyrimidin-4-amine], the IC50 in test [1] and in test [2] was less than 5 µM each time.

On to `O=C(C1CCc2c(sc3ncnc(Nc4ccc(F)c(Cl)c4)c23)C1)N1CCCCC1` (centres unmarked) [Example 3, N-(3-chloro-4-fluorophenyl)-7-(1-piperidinylcarbonyl)-5,6,7,8-tetrahydro[1]benzothieno[2,3-d]pyrimidin-4-amine], for which the IC50 in test [1] and in test [2] was less than 50 µM each time.

As for `c1ccc(Cn2ncc3cc(Nc4ncnc5sc6c(c45)CCC(CCNCCN4CCOCC4)C6)ccc32)cc1` (centres unmarked) [Example 209, N-(1-benzyl-1H-indazol-5-yl)-7-{2-[(2-morpholin-4-ylethyl)amino]ethyl}-5,6,7,8-tetrahydro[1]benzothieno[2,3-d]pyrimidin-4-amine], the IC50 in test [1] and in test [2] was less than 5 µM in each case.
